Reference: patent publication US8802597B2, “Herbicidal pyrimidines” (E I du Pont de Nemours and Company, priority 2003, dated 2014)
Where two headings read alike, the source gives them in different places.

Experiments:
Format in all cases: in vivo
[1] = test system: morningglory (Ipomoea coccinea); assay: Test C pre/postemergence; conditions: Ipomoea; for pest or weed control at 31 g/ha: 31 g ai/ha; for pest or weed control at 62 g/ha: 62 g ai/ha; for pest or weed control at 125 g/ha: 125 g ai/ha; for pest or weed control at 250 g/ha: 250 g ai/ha
How it was run: (§1)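 Visual injury ratings, 0 (no effect) to 100 (complete control), made 12 to 14 days after treatment by comparison with untreated controls. Greenhouse plants received test chemical in a surfactant-containing non-phytotoxic solvent, either preemergence on planted seeds or postemergence at the 1- to 4-leaf stage.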

corn (Zea mays) = assay: Test C pre/postemergence; conditions: Zea mays; for Corn plant response rating (crop injury, 0 = no effect, 100 = complete kill) at 31 g/ha: 31 g ai/ha; for Corn plant response rating (crop injury, 0 = no effect, 100 = complete kill) at 62 g/ha: 62 g ai/ha; for Corn plant response rating (crop injury, 0 = no effect, 100 = complete kill) at 125 g/ha: 125 g ai/ha; for Corn plant response rating (crop injury, 0 = no effect, 100 = complete kill) at 250 g/ha: 250 g ai/ha
How it was run: as §1

[2] = test system: woolly cupgrass (Eriochloa villosa); assay: Test C pre/postemergence; conditions: Eriochloa villosa; for pest or weed control at 31 g/ha: 31 g ai/ha; for pest or weed control at 62 g/ha: 62 g ai/ha; for pest or weed control at 125 g/ha: 125 g ai/ha; for pest or weed control at 250 g/ha: 250 g ai/ha
How it was run: as §1

[3] = test system: barnyardgrass (Echinochloa crus-galli); assay: Test C flooded paddy test; conditions: Flood
Procedure: (§2) At the same time, plants selected from these crop and weed species and also winter barley (Hordeum vulgare), blackgrass (Alopecurus myosuroides), canarygrass (Phalaris minor), chickweed (Stellaria media), downy brome (Bromus tectorum), green foxtail (Setaria viridis), Italian ryegrass (Lolium multiflorum), wheat (Triticum aestivum), wild oat (Avena fatua) and windgrass (Apera spica-venti) were treated with postemergence applications of some of the test chemicals formulated in the same manner. Plants ranged in height from 2 to 18 cm (1- to 4-leaf stage) for postemergence treatments. Plant species in the flooded paddy test consisted of rice (Oryza sativa), umbrella sedge (Cyperus difformis), duck salad (Heteranthera limosa) and barnyardgrass (Echinochloa crus-galli) grown to the 2-leaf stage for testing. Treated plants and controls were maintained in a greenhouse for 12 to 14 days, after which time all species were compared to controls and visually evaluated. Plant response ratings, summarized in Table C, are based on a scale of 0 to 100 where 0 is no effect and 100 is complete control. A dash (-) response means no test result.

[4] = test system: duck salad (Heteranthera limosa); assay: Test C flooded paddy test; conditions: Flood, scale 0 to 100
Procedure: as §2

rice (Oryza sativa) = assay: Test C flooded paddy test; conditions: Flood, scale 0 to 100
Procedure: as §2

[5] = test system: umbrella sedge (Cyperus difformis); assay: Test C flooded paddy test; conditions: Flood, scale 0 to 100
Procedure: as §2

[6] = post-emergence, Postemergence, scale 0 to 100 (0 no effect, 100 complete control), read-out: Morningglory plant response rating
[7] = pre-emergence, Preemergence, scale 0 to 100, 0 no effect, 100 complete control, read-out: Plant response rating, Morningglory
[8] = pre-emergence, Preemergence, scale 0 to 100, read-out: Plant response rating, Morningglory
[9] = post-emergence, Postemergence, scale 0 to 100 (0 no effect, 100 complete control), read-out: Corn plant response rating
[10] = pre-emergence, Preemergence, scale 0 to 100, 0 no effect, 100 complete control, read-out: Plant response rating, Corn
[11] = post-emergence, Postemergence, scale 0 to 100 (0 no effect, 100 complete control), read-out: Cupgrass, Woolly plant response rating
[12] = pre-emergence, Preemergence, scale 0 to 100, 0 no effect, 100 complete control, read-out: Plant response rating, Cupgrass, Woolly
[13] = pre-emergence, Preemergence, scale 0 to 100, read-out: Plant response rating, Cupgrass, Woolly

SMILES: COC(=O)c1nc(C2CC2)nc(N)c1Cl [Compound 9, methyl 6-amino-5-chloro-2-cyclopropyl-4-pyrimidinecarboxylate]
- pest or weed control at 31 g/ha ([1]; post-emergence, Postemergence, read-out: Plant response rating (scale of 0 to 100), Morningglory): 90%
- pest or weed control at 62 g/ha [1, 6]: 95%
- pest or weed control at 125 g/ha [1, 6]: 100%
- pest or weed control at 250 g/ha ([1]; post-emergence, Postemergence, scale 0 to 100, read-out: Plant response rating, Morningglory): 100%
- pest or weed control at 31 g/ha [1, 7]: 100%
- pest or weed control at 62 g/ha [1, 7]: 100%
- pest or weed control at 125 g/ha [1, 8]: 100%
- pest or weed control at 250 g/ha [1, 8]: 100%
- Corn plant response rating (crop injury, 0 = no effect, 100 = complete kill) at 31 g/ha (corn (Zea mays); post-emergence, Postemergence, read-out: Plant response rating (scale of 0 to 100), Corn): 45%
- Corn plant response rating (crop injury, 0 = no effect, 100 = complete kill) at 62 g/ha (corn (Zea mays); [9]): 55%
- Corn plant response rating (crop injury, 0 = no effect, 100 = complete kill) at 125 g/ha (corn (Zea mays); [9]): 65%
- Corn plant response rating (crop injury, 0 = no effect, 100 = complete kill) at 250 g/ha (corn (Zea mays); post-emergence, Postemergence, scale 0 to 100): 95%
- Corn plant response rating (crop injury, 0 = no effect, 100 = complete kill) at 31 g/ha (corn (Zea mays); [10]): 0%
- Corn plant response rating (crop injury, 0 = no effect, 100 = complete kill) at 62 g/ha (corn (Zea mays); [10]): 5%
- Corn plant response rating (crop injury, 0 = no effect, 100 = complete kill) at 125 g/ha (corn (Zea mays); pre-emergence, Preemergence, scale 0 to 100, read-out: Plant response rating, Corn): 60%
- Corn plant response rating (crop injury, 0 = no effect, 100 = complete kill) at 250 g/ha (corn (Zea mays); pre-emergence, Preemergence, scale 0 to 100): 75%
- pest or weed control at 31 g/ha ([2]; post-emergence, Postemergence, read-out: Plant response rating (scale of 0 to 100), Cupgrass, Woolly): 40%
- pest or weed control at 62 g/ha [2, 11]: 60%
- pest or weed control at 125 g/ha [2, 11]: 70%
- pest or weed control at 250 g/ha ([2]; post-emergence, Postemergence, scale 0 to 100, read-out: Plant response rating, Cupgrass, Woolly): 85%
- pest or weed control at 31 g/ha [2, 12]: 0%
- pest or weed control at 62 g/ha [2, 12]: 90%
- pest or weed control at 125 g/ha [2, 13]: 95%
- pest or weed control at 250 g/ha [2, 13]: 100%
- Plant response rating, Barnyardgrass ([3]; 62 g ai/ha, scale 0 to 100): 0
- Plant response rating, Barnyardgrass ([3]; 125 g ai/ha, scale 0 to 100): 15
- Plant response rating, Barnyardgrass ([3]; 250 g ai/ha, scale 0 to 100): 55
- Plant response rating, Barnyardgrass ([3]; 500 g ai/ha, scale 0 to 100 (0 no effect, 100 complete control)): 85
- Plant response rating, Ducksalad ([4]; 62 g ai/ha): 45
- Plant response rating, Ducksalad ([4]; 125 g ai/ha): 70
- Plant response rating, Ducksalad ([4]; 250 g ai/ha): 80
- Plant response rating, Ducksalad ([4]; 500 g ai/ha): 90
- Plant response rating, Rice (rice (Oryza sativa); 62 g ai/ha): 0
- Plant response rating, Rice (rice (Oryza sativa); 125 g ai/ha): 30
- Plant response rating, Rice (rice (Oryza sativa); 250 g ai/ha): 55
- Plant response rating, Rice (rice (Oryza sativa); 500 g ai/ha): 75
- Plant response rating, Sedge, Umbrella ([5]; 62 g ai/ha): 0
- Plant response rating, Sedge, Umbrella ([5]; 125 g ai/ha): 15
- Plant response rating, Sedge, Umbrella ([5]; 250 g ai/ha): 15
- Plant response rating, Sedge, Umbrella ([5]; 500 g ai/ha): 85
